{"source": "paper PMC5218480", "about": "(PLoS ONE, 2017)", "tested_on": "MV-4-11 cells", "experiment": "Gene expression microarray analysis (Affymetrix PrimeView) and GSEA", "assay_type": "cell-based, human", "parameters": "RFU PODN (11730768_x_at) / Fold change /veh PODN (11730768_x_at) / RFU LINC00158 (11744669_a_at) / Fold change /veh LINC00158 (11744669_a_at) / RFU DUSP10 (11751237_a_at) / Fold change /veh DUSP10 (11751237_a_at) / RFU ID3 (11757404_x_at) / Fold change /veh ID3 (11757404_x_at) / RFU PLEKHG5 (11737974_s_at) / Fold change /veh PLEKHG5 (11737974_s_at) / RFU LRRC4B (11730491_at) / Fold change /veh LRRC4B (11730491_at) / RFU GIMAP4 (11747438_a_at) / Fold change /veh GIMAP4 (11747438_a_at) / RFU KRT8 (11758183_x_at) / Fold change /veh KRT8 (11758183_x_at) / RFU CNN1 (11734310_a_at) / Fold change /veh CNN1 (11734310_a_at) / RFU VPS37D (11726825_at) / Fold change /veh VPS37D (11726825_at) / RFU C10orf10 (11716522_x_at) / Fold change /veh C10orf10 (11716522_x_at) / RFU KIR2DL2 /// KIR2DL4 /// KIR2DL5A /// KIR2DL5B /// KIR2DS1 /// KIR2DS2 /// KIR2DS3 /// KIR2DS4 /// KIR3DL3 /// KIR3DL3 /// KIR3DS1 (11738374_at) / Fold change /veh KIR2DL2 /// KIR2DL4 /// KIR2DL5A /// KIR2DL5B /// KIR2DS1 /// KIR2DS2 /// KIR2DS3 /// KIR2DS4 /// KIR3DL3 /// KIR3DL3 /// KIR3DS1 (11738374_at) / RFU C1QL1 (11718748_at) / Fold change /veh C1QL1 (11718748_at) / RFU TMPRSS4 (11747572_a_at) / Fold change /veh TMPRSS4 (11747572_a_at) / RFU HAMP (11756126_x_at) / Fold change /veh HAMP (11756126_x_at) / RFU RNFT2 (11725882_a_at) / Fold change /veh RNFT2 (11725882_a_at) / RFU NR4A2 (11747474_a_at) / Fold change /veh NR4A2 (11747474_a_at) / RFU ABCC12 (11746883_a_at) / Fold change /veh ABCC12 (11746883_a_at) / RFU TMEM136 (11760407_x_at) / Fold change /veh TMEM136 (11760407_x_at) / RFU CLDN22 /// WWC2 (11732394_at) / Fold change /veh CLDN22 /// WWC2 (11732394_at) / RFU HLA-DPB1 (11760878_x_at) / Fold change /veh HLA-DPB1 (11760878_x_at) / RFU SPINT1 (11716480_a_at) / Fold change /veh SPINT1 (11716480_a_at) / RFU GAP43 (11754022_s_at) / Fold change /veh GAP43 (11754022_s_at) / RFU A4GNT (11735810_at) / Fold change /veh A4GNT (11735810_at) / RFU PRB3 (11715151_x_at) / Fold change /veh PRB3 (11715151_x_at) / RFU TUBB4B (11761932_at) / Fold change /veh TUBB4B (11761932_at) / RFU CAPN14 (11732068_a_at) / Fold change /veh CAPN14 (11732068_a_at) / RFU TMCC2 (11721928_a_at) / Fold change /veh TMCC2 (11721928_a_at) / RFU IRGQ (11745062_a_at) / Fold change /veh IRGQ (11745062_a_at) / RFU FAM174B (11720279_a_at) / Fold change /veh FAM174B (11720279_a_at) / RFU TMPRSS4 (11748680_a_at) / Fold change /veh TMPRSS4 (11748680_a_at) / RFU FAM212B (11763350_a_at) / Fold change /veh FAM212B (11763350_a_at) / RFU PLEKHG5 (11743358_a_at) / Fold change /veh PLEKHG5 (11743358_a_at) / RFU ZSCAN30 (11745921_a_at) / Fold change /veh ZSCAN30 (11745921_a_at) / RFU CMKLR1 (11741424_a_at) / Fold change /veh CMKLR1 (11741424_a_at) / RFU LOC101060620 /// MAPK8IP1 (11723275_at) / Fold change /veh LOC101060620 /// MAPK8IP1 (11723275_at) / RFU SPTSSB (11747773_x_at) / Fold change /veh SPTSSB (11747773_x_at) / RFU PRSS12 (11739890_at) / Fold change /veh PRSS12 (11739890_at) / RFU BIN1 (11741810_x_at) / Fold change /veh BIN1 (11741810_x_at) / RFU WNT11 (11732464_a_at) / Fold change /veh WNT11 (11732464_a_at) / RFU C10orf10 (11716521_a_at) / Fold change /veh C10orf10 (11716521_a_at) / RFU C5orf56 (11738089_at) / Fold change /veh C5orf56 (11738089_at) / RFU CYB561 (11721691_x_at) / Fold change /veh CYB561 (11721691_x_at) / RFU ANKRD19P (11752326_a_at) / Fold change /veh ANKRD19P (11752326_a_at) / RFU OR2T12 /// OR2T33 /// OR2T8 (11738714_s_at) / Fold change /veh OR2T12 /// OR2T33 /// OR2T8 (11738714_s_at) / RFU VCAN (11748164_a_at) / Fold change /veh VCAN (11748164_a_at) / RFU JSRP1 (11732532_at) / Fold change /veh JSRP1 (11732532_at) / RFU KRTAP10-11 (11738290_x_at) / Fold change /veh KRTAP10-11 (11738290_x_at) / RFU MYO3A (11730013_a_at) / Fold change /veh MYO3A (11730013_a_at) / RFU EBF3 (11725865_a_at) / Fold change /veh EBF3 (11725865_a_at) / RFU CAMK2N1 (11719241_x_at) / Fold change /veh CAMK2N1 (11719241_x_at) / RFU C5orf56 (11738088_a_at) / Fold change /veh C5orf56 (11738088_a_at) / RFU OLFML3 (11715873_a_at) / Fold change /veh OLFML3 (11715873_a_at) / RFU LOC100653217 /// NTM (11731650_a_at) / Fold change /veh LOC100653217 /// NTM (11731650_a_at) / RFU MAPK11 (11762145_a_at) / Fold change /veh MAPK11 (11762145_a_at) / RFU FIZ1 (11724087_x_at) / Fold change /veh FIZ1 (11724087_x_at) / RFU OASL (11726364_x_at) / Fold change /veh OASL (11726364_x_at) / RFU SOX15 (11748057_x_at) / Fold change /veh SOX15 (11748057_x_at) / RFU CD79A (11719716_a_at) / Fold change /veh CD79A (11719716_a_at) / RFU HIST1H1D (11736915_at) / Fold change /veh HIST1H1D (11736915_at) / RFU CASKIN2 (11723855_a_at) / Fold change /veh CASKIN2 (11723855_a_at) / RFU LOC730098 (11760151_x_at) / Fold change /veh LOC730098 (11760151_x_at) / RFU OR4N2 (11742367_at) / Fold change /veh OR4N2 (11742367_at) / RFU PRRT2 (11749266_a_at) / Fold change /veh PRRT2 (11749266_a_at) / RFU SNX32 (11753110_a_at) / Fold change /veh SNX32 (11753110_a_at) / RFU CDHR5 (11726645_a_at) / Fold change /veh CDHR5 (11726645_a_at) / RFU RCAN1 (11760418_a_at) / Fold change /veh RCAN1 (11760418_a_at) / RFU FAM167A (11723789_a_at) / Fold change /veh FAM167A (11723789_a_at) / RFU FAM26E (11764081_at) / Fold change /veh FAM26E (11764081_at) / RFU ISYNA1 (11749810_s_at) / Fold change /veh ISYNA1 (11749810_s_at) / RFU ACY1 (11761880_at) / Fold change /veh ACY1 (11761880_at) / RFU 11764098_at / Fold change /veh 11764098_at / RFU SAMD14 (11745864_x_at) / Fold change /veh SAMD14 (11745864_x_at) / RFU NPB (11741838_a_at) / Fold change /veh NPB (11741838_a_at) / RFU TMPRSS6 (11731388_a_at) / Fold change /veh TMPRSS6 (11731388_a_at) / RFU KRTAP10-2 (11738614_at) / Fold change /veh KRTAP10-2 (11738614_at) / RFU ARHGAP8 /// PRR5-ARHGAP8 (11727945_x_at) / Fold change /veh ARHGAP8 /// PRR5-ARHGAP8 (11727945_x_at) / RFU KRTAP5-7 /// NADSYN1 (11734609_at) / Fold change /veh KRTAP5-7 /// NADSYN1 (11734609_at) / RFU RASL12 (11751679_a_at) / Fold change /veh RASL12 (11751679_a_at) / RFU CDKN2B (11736163_a_at) / Fold change /veh CDKN2B (11736163_a_at) / RFU PRF1 (11729649_at) / Fold change /veh PRF1 (11729649_at) / RFU, ZNF638 /// ZNF638-IT1 / Fold change vs veh, ZNF638 /// ZNF638-IT1 / RFU, PANK3 / Fold change vs veh, PANK3 / RFU, SH3YL1 / Fold change vs veh, SH3YL1 / RFU, ZEB2 / Fold change vs veh, ZEB2 / RFU, NRIP1 / Fold change vs veh, NRIP1 / RFU, PTTG1IP / Fold change vs veh, PTTG1IP / RFU, CAPN2 / Fold change vs veh, CAPN2 / RFU, MED14 / Fold change vs veh, MED14 / RFU, SNORA58 / Fold change vs veh, SNORA58 / RFU, C1orf63 / Fold change vs veh, C1orf63 / RFU, LRRFIP1 / Fold change vs veh, LRRFIP1 / RFU, NDUFAF7 / Fold change vs veh, NDUFAF7 / RFU, SLC12A2 / Fold change vs veh, SLC12A2 / RFU, IBTK / Fold change vs veh, IBTK / RFU, ESF1 / Fold change vs veh, ESF1 / Fold change vs veh, TMEM50B / RFU, TAOK1 / Fold change vs veh, TAOK1 / RFU, ACBD3 / Fold change vs veh, ACBD3 / RFU, TMA16 / Fold change vs veh, TMA16 / RFU, RWDD3 / Fold change vs veh, RWDD3 / RFU, BCAT1 / Fold change vs veh, BCAT1 / RFU, EDEM3 / Fold change vs veh, EDEM3 / RFU, TMEM33 / Fold change vs veh, TMEM33 / RFU, WDR75 / Fold change vs veh, WDR75 / RFU, AHCTF1 / Fold change vs veh, AHCTF1 / RFU, TFRC / Fold change vs veh, TFRC / RFU, ZDHHC17 / Fold change vs veh, ZDHHC17 / RFU, NOM1 / Fold change vs veh, NOM1 / RFU, ARL8B / Fold change vs veh, ARL8B / RFU, ZBTB11 / Fold change vs veh, ZBTB11 / RFU, TAMM41 / Fold change vs veh, TAMM41 / RFU, KIAA1704 /// LOC100996395 / Fold change vs veh, KIAA1704 /// LOC100996395 / RFU, ING1 / Fold change vs veh, ING1 / RFU, TRMT61B / Fold change vs veh, TRMT61B / RFU, FUBP3 / Fold change vs veh, FUBP3 / RFU, TP53 / Fold change vs veh, TP53 / RFU, TNKS2 / Fold change vs veh, TNKS2 / RFU, ZFP14 / Fold change vs veh, ZFP14 / RFU, ACTR2 / Fold change vs veh, ACTR2 / RFU, PPP3R1 / Fold change vs veh, PPP3R1 / RFU, PIK3R1 / Fold change vs veh, PIK3R1 / RFU, HNRNPA1 / Fold change vs veh, HNRNPA1 / RFU, RNF170 / Fold change vs veh, RNF170 / RFU, ZNF28 / Fold change vs veh, ZNF28 / RFU, RNGTT / Fold change vs veh, RNGTT / RFU, OGT / Fold change vs veh, OGT / RFU, BRD1 / Fold change vs veh, BRD1 / RFU, MARS / Fold change vs veh, MARS / RFU, ZNF655 / Fold change vs veh, ZNF655 / RFU, FAHD1 / Fold change vs veh, FAHD1 / RFU, BDP1 / Fold change vs veh, BDP1 / RFU, LRRCC1 / Fold change vs veh, LRRCC1 / RFU, ARID1A / Fold change vs veh, ARID1A / RFU, ZNF146 / Fold change vs veh, ZNF146 / RFU, ZNF330 / Fold change vs veh, ZNF330 / RFU, GPN3 / Fold change vs veh, GPN3 / RFU, C9orf123 / Fold change vs veh, C9orf123 / RFU, N4BP2L2 / Fold change vs veh, N4BP2L2 / RFU, ARFIP1 / Fold change vs veh, ARFIP1 / RFU, FAM179B / Fold change vs veh, FAM179B / RFU, BCL10 / Fold change vs veh, BCL10 / RFU, UHRF1BP1L / Fold change vs veh, UHRF1BP1L / RFU, BET1 / Fold change vs veh, BET1 / RFU, CNOT2 / Fold change vs veh, CNOT2 / RFU, ZNF268 / Fold change vs veh, ZNF268 / Fold change vs veh, ZNF507 / RFU, DGCR2 / Fold change vs veh, DGCR2 / RFU, WDSUB1 / Fold change vs veh, WDSUB1 / Fold change vs veh, HSP90B1 /// MIR3652 / RFU, ADSS / Fold change vs veh, ADSS / RFU, GK / Fold change vs veh, GK / RFU, ZNF148 / Fold change vs veh, ZNF148 / RFU, TAF9 / Fold change vs veh, TAF9 / RFU, SLC1A5 / Fold change vs veh, SLC1A5 / RFU, SLMO2 / Fold change vs veh, SLMO2 / RFU, ABCC4 / Fold change vs veh, ABCC4 / RFU, LOC101060439 /// RAP1B / Fold change vs veh, LOC101060439 /// RAP1B / RFU, RFX7 / Fold change vs veh, RFX7 / RFU, GTPBP10 / Fold change vs veh, GTPBP10 / RFU, CNEP1R1 / Fold change vs veh, CNEP1R1 / RFU, BIVM-ERCC5 /// ERCC5 / Fold change vs veh, BIVM-ERCC5 /// ERCC5 / RFU, ILF3 / Fold change vs veh, ILF3 / RFU 11762660_at / Fold change /veh 11762660_at / RFU VCAN (11757783_s_at) / Fold change /veh VCAN (11757783_s_at) / RFU DDX43 (11728927_at) / Fold change /veh DDX43 (11728927_at) / RFU KRT8 (11758188_x_at) / Fold change /veh KRT8 (11758188_x_at) / RFU NKD1 (11759106_at) / Fold change /veh NKD1 (11759106_at) / RFU SRD5A1 (11742802_a_at) / Fold change /veh SRD5A1 (11742802_a_at) / RFU TPSAB1 /// TPSB2 (11721975_s_at) / Fold change /veh TPSAB1 /// TPSB2 (11721975_s_at) / RFU GSTM3 (11746129_a_at) / Fold change /veh GSTM3 (11746129_a_at) / RFU IL23R (11737362_x_at) / Fold change /veh IL23R (11737362_x_at) / RFU TMEM51 (11727254_a_at) / Fold change /veh TMEM51 (11727254_a_at) / RFU PIWIL2 (11732686_x_at) / Fold change /veh PIWIL2 (11732686_x_at) / RFU ORM1 (11744905_x_at) / Fold change /veh ORM1 (11744905_x_at) / RFU CCDC152 (11743942_at) / Fold change /veh CCDC152 (11743942_at) / RFU ECM1 (11717891_a_at) / Fold change /veh ECM1 (11717891_a_at) / RFU IL23R (11748794_a_at) / Fold change /veh IL23R (11748794_a_at) / RFU TNFAIP8L3 (11732012_x_at) / Fold change /veh TNFAIP8L3 (11732012_x_at) / RFU MBOAT4 (11741988_at) / Fold change /veh MBOAT4 (11741988_at) / RFU 11764193_at / Fold change /veh 11764193_at / RFU TMEM53 (11763286_at) / Fold change /veh TMEM53 (11763286_at) / RFU MAGEB2 (11727129_at) / Fold change /veh MAGEB2 (11727129_at) / RFU TMEM200A (11744735_a_at) / Fold change /veh TMEM200A (11744735_a_at) / RFU CCDC152 (11751479_a_at) / Fold change /veh CCDC152 (11751479_a_at) / RFU FAM211A (11726209_a_at) / Fold change /veh FAM211A (11726209_a_at) / RFU RGS16 (11746705_a_at) / Fold change /veh RGS16 (11746705_a_at) / RFU VCAN (11755009_s_at) / Fold change /veh VCAN (11755009_s_at) / RFU RHOB (11743442_s_at) / Fold change /veh RHOB (11743442_s_at) / RFU RGS16 (11720943_a_at) / Fold change /veh RGS16 (11720943_a_at) / RFU RGS16 (11720944_at) / Fold change /veh RGS16 (11720944_at) / RFU, VPS4B / Fold change vs veh, VPS4B / RFU, CREB1 / Fold change vs veh, CREB1 / RFU, DNAJC13 / Fold change vs veh, DNAJC13 / RFU, GNAQ / Fold change vs veh, GNAQ / RFU, CDK5R1 / Fold change vs veh, CDK5R1 / RFU, ZRANB3 / Fold change vs veh, ZRANB3 / RFU, CUL4A / Fold change vs veh, CUL4A / RFU, CCNY / Fold change vs veh, CCNY / RFU, UFL1 / Fold change vs veh, UFL1 / RFU, COG3 / Fold change vs veh, COG3 / RFU, DIAPH2 / Fold change vs veh, DIAPH2 / RFU, SKA2 / Fold change vs veh, SKA2 / RFU, AFF3 / Fold change vs veh, AFF3 / RFU, LMF1 / Fold change vs veh, LMF1 / RFU, IPO11 / Fold change vs veh, IPO11 / RFU, DFFB / Fold change vs veh, DFFB / RFU, FOXP1 / Fold change vs veh, FOXP1 / RFU, CARD8 / Fold change vs veh, CARD8 / RFU, STRN3 / Fold change vs veh, STRN3 / RFU, ADK / Fold change vs veh, ADK / RFU, RASSF2 / Fold change vs veh, RASSF2 / RFU, WIPF1 / Fold change vs veh, WIPF1 / RFU, LARP1B / Fold change vs veh, LARP1B / RFU, RASA1 / Fold change vs veh, RASA1 / RFU, RB1 / Fold change vs veh, RB1 / RFU, PPFIA1 / Fold change vs veh, PPFIA1 / RFU, MAT2A / Fold change vs veh, MAT2A / RFU, CCT5 / Fold change vs veh, CCT5 / RFU, WDR92 / Fold change vs veh, WDR92 / RFU, CUX1 / Fold change vs veh, CUX1 / RFU, TTC7A / Fold change vs veh, TTC7A / RFU, TMEM135 / Fold change vs veh, TMEM135 / RFU, DEPTOR / Fold change vs veh, DEPTOR / RFU, CPM / Fold change vs veh, CPM / RFU, DNAJB6 / Fold change vs veh, DNAJB6 / RFU, CACNA2D3 / Fold change vs veh, CACNA2D3 / RFU, DTX4 / Fold change vs veh, DTX4 / RFU, TFCP2 / Fold change vs veh, TFCP2 / RFU, GMCL1 /// GMCL1P1 / Fold change vs veh, GMCL1 /// GMCL1P1 / RFU, AEBP2 / Fold change vs veh, AEBP2 / RFU, SNHG1 /// SNORD22 /// SNORD25 /// SNORD26 /// SNORD27 /// SNORD28 /// SNORD29 /// SNORD31 / Fold change vs veh, SNHG1 /// SNORD22 /// SNORD25 /// SNORD26 /// SNORD27 /// SNORD28 /// SNORD29 /// SNORD31 / Fold change (Aza/veh), C12orf56 (ProbeSet 11735607_a_at) / Fold change (ACY-1035/veh), C12orf56 (ProbeSet 11735607_a_at) / Fold change (Aza/veh), FGFR1OP (ProbeSet 11751329_s_at) / Fold change (ACY-1035/veh), FGFR1OP (ProbeSet 11751329_s_at) / Fold change (Aza/veh), VPS36 (ProbeSet 11739960_a_at) / Fold change (ACY-1035/veh), VPS36 (ProbeSet 11739960_a_at) / RFU SYPL1 (11715823_x_at) / Fold change /veh SYPL1 (11715823_x_at) / RFU IGFBP7 (11715501_s_at) / Fold change /veh IGFBP7 (11715501_s_at) / RFU REEP3 (11722064_at) / Fold change /veh REEP3 (11722064_at) / RFU IGLL1 (11728026_x_at) / Fold change /veh IGLL1 (11728026_x_at): dose or concentration left out as unconfirmed", "conditions": "MV-4-11 cells, 48 hours"}
{"smiles": "Nc1ccc(-c2cccs2)cc1NC(=O)c1ccc2c(c1)cc(C1CC1)n2CCN1CCOCC1", "note": "[ACY-1035]", "values": [{"measurement": "Fold change /veh VCAN (11748164_a_at)", "result": 1.07}]}
